“Also recorded” adds a separate entry of the source.
What was measured:
[1] = tested on: SW48 cells; experiment: Cytotoxicity assay, CellTiter-Glo 2.0, SW48 cells; assay type: cell-based; details: SW48, human colon cancer cell line expressing wild type kRAS (EGF receptor mutation); 48 hours
Description: FIG. 3, panels A-B, illustrates the cytotoxicity of Structure 2 and Structure 3 on SW48 cells. The cytotoxicity of compounds of interest were tested against the human colon cancer cell line SW48 as described in the experimental section. SW48 cells express the wild type kRAS but are driven by an EGF receptor mutation G1255A. Compounds were incubated with cells for 48 hours and the assay was developed using Cell Titer Glo 2.0. IC50 vales were determined using GraphPad Prism 4.
(§1) Compounds were assayed for inhibition of cell proliferation and killing cancer cells. Cytotoxicity assays were conducted according to the following general procedure. SW480, SW48, SW900, SW620 were all maintained in Leibowitz L15 media supplemented with 10% fetal bovine serum and 1% PenStrep and grown in a 37° C. incubator without supplemental CO2. Capan-1 cells were maintained in Iscove's Modified Dulbecco's Medium (ATCC 30-2005) containing 20% fetal bovine serum and 1% PenStrep and grown in a 37° C. incubator containing 5% CO2.
For dose-response assays, SW480 cells were plated into 96 well plates (1 million/plate, ˜10,000/well, 250 μL media/well). Cells were allowed to settle and adhere to plate bottom overnight Compounds were placed in 500 μL media and mixed. […] Luminescence was read with FLx800 (BioTek Instruments).

[2] = tested on: A431; experiment: Cytotoxicity assay, A431 cells; assay type: cell-based; details: A431, human epidermoid carcinoma cell line expressing wild type kRAS
Description: as §1

[3] = tested on: HT-1080 cells; experiment: Cell morphology assay; assay type: cell-based, human; details: 24 hours, 1.2-100 μM, Alexa Fluor 488 Phalloidin
Description: FIG. 7, panels A-F, illustrate the effect of an exemplary compound of Structure 2 on the HT-1080 cells in a cell morphology assay. Effect of Structure 2 on the HT-1080 cells in cell morphology assay. HT1080 cells were seeded in 6-well plates at 300,000 per plate, incubated overnight and various amounts of Structure 2 (compound 1) in the DMSO vehicle or vehicle control added. After 24 hours, cells were washed, fixed with formaldehyde, stained with Alexa Fluor 488 Phalloidin and imaged using a fluorescence microscope. […]
An assay was performed (see e.g., Kato-Stankiewicz et al., Inhibitors of RAS/Raf-1 interaction identified by two-hybrid screening revert RAS-dependent transformation phenotypes in human cancer cells. Proc Natl Acad Sci USA. 2002; 99: 14398-403) to evaluate the ability of an inhibitor to dampen the RAS/RAF/MEK/ERK pathway and provide a reversion of cell appearance from a rounded to a flat, elongated morphology (Paterson et al., Activated nRAS controls the transformed phenotype of HT1080 human fibrosarcoma cells. Cell. 1987 Dec. 4; 51 (5):803-12). […] Cells were then washed 2 times with PBS and imaged using a Zeiss Axiovert 25 fluorescence microscope.

[4] = tested on: SW480 cells implanted into nu/nu mice; experiment: Xenograft study; assay type: in vivo, nude mice (nu/nu); details: SW480 subcutaneous tumors in nu/nu mice, 2 mg/kg ip, 24 days post treatment, p<0.028 Student's t-test
Description: FIG. 10 Effect of Structure 2 on growth of SW480 cells implanted into nu/nu mice. Boxplots showing tumor volumes in nude mice 24 days post treatment ip with either 2 mg/kg Structure 2 or vehicle control (DMSO). Subcutaneous tumors were induced by subcutaneous inoculation in the right flank of 3×10^6 human colon cancer cell line SW480 in Matrigel. Treatment with Structure 2 was initiated 6 days post tumor implantation. Structure 2 was administrated ip at 2 mg/kg, while control was given vehicle DMSO. All animals were sacrificed at day 30. […] In the Figure, (*) designates p<0.028 compared to vehicle control by Student's t-test.
Female nude mice (nu/nu) were purchased from Simonsen Laboratories (Gilroy, CA). All experiments were performed with 4 to 6-week-old female mice. Mice were housed in a barrier unit in the Tosk Animal facility, kept in filter-top cages with water and food provided ad libitum, and were checked at least twice a week for clinical signs of disease and discomfort. Subcutaneous tumors are induced by subcutaneous inoculation in the right flank of 3×10^6 human colon cancer cell line SW480 in Matrigel. The tumors are allowed to grow and volumes (mm^3) are calculated weekly from digital caliper measurements as 0.5×length×width^2. Treatment was initiated 6 days post tumor implantation. Structure 2 was administrated ip at 2 mg/kg, while control was given vehicle DMSO. […]

[5] = tested on: H322; experiment: Cytotoxicity assay, H322 cells; assay type: cell-based; details: H322, human lung cancer cell line expressing wild type kRAS
Description: as §1

Cc1nc(-c2ccc(CNC(=O)c3cc(CC(C)C)nn3C)cc2)no1 [Structure 2, 3-isobutyl-1-methyl-N-(4-(5-methyl-1,2,4-oxadiazol-3-yl)benzyl)-1H-pyrazole-5-carboxamide]
IC50 [1]: 607 nM | not cytotoxic at concentrations up to [2]: > 40 µM | reversion of cell phenotype (morphology) [3]: produced reversion of cell phenotype from the rounded to the flatter more elongated morphology | tumor volume versus vehicle control [4]: statistically significant reduction in tumor volume; also recorded: mitigates the growth of SW480 cells | not cytotoxic at concentrations up to [5]: > 200 µM

Reference: patent US12486255B2, “Modulators of RAS GTPase” (Tosk, Inc., priority 2018, dated 2025)
